Measured values from patent publication US7879907B2, “3-phenylpropanoic compound activators of receptors of PPAR type and pharmaceutical/cosmetic compositions comprised thereof” (Galderma Research & Development, priority 2007, dated 2011).

Molecular target: T1, PPARγ (Gal-hPPAR) (Homo sapiens, UniProt P37231)
T1 construct: The reporter is printed as ERE-βGlob-Luc-SV-Neo
T1 sequence (P37231 238-505 limits assumed): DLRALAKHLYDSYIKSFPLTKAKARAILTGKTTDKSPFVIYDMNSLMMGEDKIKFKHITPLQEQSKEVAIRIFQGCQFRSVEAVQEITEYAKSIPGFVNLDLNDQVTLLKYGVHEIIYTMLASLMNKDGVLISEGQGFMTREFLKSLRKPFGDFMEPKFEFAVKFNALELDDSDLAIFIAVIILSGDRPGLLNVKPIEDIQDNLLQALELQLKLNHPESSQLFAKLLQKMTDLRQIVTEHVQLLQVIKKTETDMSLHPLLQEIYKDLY
Assay: Cross-curve PPAR transactivation test (luciferase reporter, HeLN cells), PPARγ
Type: cell-based
Details: HeLN stable transfectants; Schild regression against reference agonist; apparent Kd; read-out: PPAR gamma Kd app
Experimental: The activation of PPAR receptors with an agonist (activator) in HeLN cells leads to the expression of a reporter gene, luciferase, which, in the presence of a substrate, generates light. The modulation of the PPAR receptors is measured by quantifying the luminescence produced after incubating the cells in the presence of a reference agonist. The ligands displace the agonist from its site. The measurement of the activity is performed by quantifying the light produced. This measurement makes it possible to determine the modulatory activity of the compounds according to the invention by determining the constant that is the affinity of the molecule for the PPAR receptor. Since this value can fluctuate depending on the basal activity and the expression of the receptor, it is referred to as Kd apparent (KdApp in nM).
To determine this constant, “cross curves” of the test product against a reference agonist are produced in a 96-well plate: 10 concentrations of the test product plus a concentration 0 are arranged in a line, and 7 concentrations of the agonist plus a concentration 0 are arranged in a column. This is 88 measurement points for 1 product and 1 receptor. […]
The various dilutions of the test products and of the reference ligand are added at a rate of 5 μl per well. […] After 5 minutes, the plates are read by the luminescence detector.

In the case of `CCCCOc1cc(CCC(=O)O)ccc1CCCc1ccc(OS(=O)(=O)CCCC)c(OC)c1` [Example 5, 3-(4-{3-[4-(butane-1-sulfonyloxy)-3-methoxyphenyl]propyl}-3-butoxyphenyl)propanoic acid], the Kd is reported as 8 nM.
